Assay results: patent US20030139427A1, “Bicyclic pyrimidinyl derivatives and methods of use thereof” (OSI Pharmaceuticals Inc., priority 2002, published 2003)
pKi: −log10 of the molar value. Where two headings read alike, the source gives them in different places.

Assays:
[1] = target: T1, human A1 receptor subtype (Homo sapiens, UniProt P30542); conditions: for pKi: read-out: A1 Binding Ki, Tables 7-13, deazapurine analogues
T1 sequence (P30542 1-326): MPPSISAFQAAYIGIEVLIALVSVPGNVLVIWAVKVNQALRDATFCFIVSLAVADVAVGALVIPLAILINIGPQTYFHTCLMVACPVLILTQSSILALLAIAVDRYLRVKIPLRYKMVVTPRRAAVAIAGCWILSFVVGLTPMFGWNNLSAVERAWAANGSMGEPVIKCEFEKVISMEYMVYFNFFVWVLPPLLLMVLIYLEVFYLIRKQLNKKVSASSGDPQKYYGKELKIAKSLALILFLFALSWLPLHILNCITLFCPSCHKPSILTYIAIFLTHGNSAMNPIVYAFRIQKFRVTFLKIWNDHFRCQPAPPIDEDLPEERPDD

[2] = target: T2, human A3 receptor subtype (Homo sapiens, UniProt P0DMS8); assay: Adenosine 3 receptor competition radioligand binding, [125I]AB-MECA, HEK293 membranes; conditions: for pKi: Table 6, read-out: Ki − A3
T2 construct: purchased Receptor Biology (Beltsville, Md.) RB-HA3; host or cells: HEK-293, stably expressing
T2 sequence (P0DMS8 1-318): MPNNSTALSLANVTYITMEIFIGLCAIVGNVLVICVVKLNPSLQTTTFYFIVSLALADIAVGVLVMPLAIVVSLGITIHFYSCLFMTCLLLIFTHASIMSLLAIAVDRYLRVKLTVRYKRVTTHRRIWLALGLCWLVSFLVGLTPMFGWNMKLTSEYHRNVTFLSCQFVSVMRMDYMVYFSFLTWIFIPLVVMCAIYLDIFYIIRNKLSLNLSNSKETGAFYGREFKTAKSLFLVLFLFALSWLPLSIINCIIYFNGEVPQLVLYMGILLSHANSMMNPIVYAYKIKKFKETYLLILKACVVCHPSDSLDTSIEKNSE

[3] = target: T3, human A2b receptor subtype (Homo sapiens, UniProt P29275); assay: Adenosine 2b receptor subtype competition radioligand binding, [3H]DPCPX, HEK293 membranes; conditions: for pKi: Table 6, read-out: Ki − A2B
T3 construct: purchased Receptor Biology (Beltsville, Md.) RB-HA2b; host or cells: HEK-293, stably expressing
T3 sequence (P29275 1-332): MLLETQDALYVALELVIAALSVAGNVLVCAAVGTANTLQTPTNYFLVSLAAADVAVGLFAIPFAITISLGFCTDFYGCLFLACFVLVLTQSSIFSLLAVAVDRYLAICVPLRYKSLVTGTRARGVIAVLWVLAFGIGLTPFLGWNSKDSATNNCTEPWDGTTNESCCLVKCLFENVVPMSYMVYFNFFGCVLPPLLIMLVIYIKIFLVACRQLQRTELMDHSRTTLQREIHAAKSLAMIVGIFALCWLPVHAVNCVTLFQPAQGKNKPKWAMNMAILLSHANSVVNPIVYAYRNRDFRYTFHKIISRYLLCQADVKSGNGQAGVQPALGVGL

[4] = target: T4, human A2a receptor subtype (Homo sapiens, UniProt P29274); assay: Adenosine 2a receptor subtype competition radioligand binding, [3H]CGS-21680, HEK293 membranes
T4 construct: purchased Receptor Biology (Beltsville, Md.) RB-HA2a; host or cells: HEK-293, stably expressing

[5] = target: T1, human A1 receptor subtype; assay: biochemical
PDE4 (Human) = assay: PDE4 inhibition; type: biochemical
hA3R = target: T5, hA3R (Homo sapiens, UniProt P0DMS8); assay: Displacement binding of [3H]CPX, yeast membranes expressing human A3 receptor; conditions: read-out: IC50 [nM] hA3R, 0.4 nM [3H]CPX
T5 sequence (P0DMS8 1-318): T2 sequence (P0DMS8 1-318)

T4 sequence (P29274 whole entry): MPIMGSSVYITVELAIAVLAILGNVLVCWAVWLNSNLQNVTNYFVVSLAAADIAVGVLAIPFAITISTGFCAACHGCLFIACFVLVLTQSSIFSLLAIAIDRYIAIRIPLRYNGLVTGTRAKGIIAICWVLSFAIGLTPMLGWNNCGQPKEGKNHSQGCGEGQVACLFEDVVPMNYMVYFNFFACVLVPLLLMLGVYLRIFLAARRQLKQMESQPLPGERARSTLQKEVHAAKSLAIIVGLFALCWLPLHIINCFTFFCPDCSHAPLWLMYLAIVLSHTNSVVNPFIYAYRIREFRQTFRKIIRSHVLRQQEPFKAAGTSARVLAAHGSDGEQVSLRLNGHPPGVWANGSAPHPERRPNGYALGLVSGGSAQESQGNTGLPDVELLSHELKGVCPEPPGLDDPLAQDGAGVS

Compound	pKi [3]	pKi ([4]; Table 6, read-out: Ki − A2A)	pKi [5]	further results
Cc1[nH]c2nc(-c3ccccc3)nc(NC3CCC(OC(=O)c4ccccc4)CC3)c2c1C (stereo not drawn) [Compound 606]	–	–	–	pKi [1]: 6.53
O[C@H]1CC[C@H](Nc2nc(-c3ccncc3)nc3[nH]ccc23)CC1 [Compound 1321]	–	–	–	A3, % activity @ 10 μM ([2]; Table 14, 10 μM): 54%^8
NC(=O)[C@@H]1CCCN1c1nc(-c2ccccc2)nc2[nH]cnc12	7.20	7.72	9.05	–
Cc1[nH]c2nc(-c3ccccc3)nc(NC3CCC(OC(=O)c4ccccc4)CC3)c2c1C (stereo not drawn) [Compound 611]	–	–	–	pKi [1]: 6.10
O[C@H]1CC[C@H](Nc2nc(-c3ccccc3)nc3[nH]ncc23)CC1	5.84	6.36	8.36	PDE4 (Human) Inhibition at 10 μM (PDE4 (Human)): 89%; pKi [2]: 6.18
NC(=O)[C@H]1CCCN1c1nc(-c2ccccc2)nc2[nH]cnc12	6.77	7.68	7.91	–
CC(=O)NCCNc1nc(-c2ccccc2)nc2[nH]ncc12	7.49	7.31	7.94	–
CNC(=O)NCCCNc1nc(-c2ccccc2)nc2[nH]c(C)c(C)c12 [Compound 1310]	–	–	–	A2a, value printed as % in Ki column ([4]; Table 14): 76%
NC(=O)[C@H]1CCCN1c1nc(-c2ccccc2)nc2[nH]ncc12	5.83	6.61	7.12	–
Cc1[nH]c2nc(-c3ccccc3)nc(N[C@H]3CC[C@H](O)CC3)c2c1C [Compound 1304]	–	–	–	Ki ([2]; Table 14, read-out: Binding Ki (nM) A3): 21.5 nM; Ki ([3]; Table 14, read-out: Binding Ki (nM) A2b): 138 nM
O=c1nc2[nH]c3ccccc3nc-2c(=O)[nH]1 [Alloxazine]	–	–	–	IC50 (hA3R): 8220 nM
O[C@H]1CC[C@H](Nc2nc(-c3ccccc3)nc3[nH]cnc23)CC1	7.16	7.01	8.82	PDE4 (Human) Inhibition at 10 μM (PDE4 (Human)): 79%; pKi [2]: 6.76
NC(=O)[C@@H]1CCCN1c1nc(-c2ccccc2)nc2[nH]ncc12	7.01	7.18	9.22	PDE4 (Human) Inhibition at 10 μM (PDE4 (Human)): 34%; pKi [2]: 6.58
CC(=O)NCCNc1nc(-c2ccccc2)nc2[nH]cnc12	7.66	7.61	8.13	–
NC(=O)[C@@H]1CCCN1c1nc(-c2ccccc2)nc2[nH]nnc12	5.25	5.26	7.09	–
O[C@H]1CC[C@H](Nc2nc(-c3ccccc3)nc3[nH]nnc23)CC1	5.38	5.82	7.28	–
O[C@H]1CC[C@H](Nc2nc(-c3ccccc3)nc3[nH]c(CN4CCOCC4)cc23)CC1 [Compound 1503]	–	–	–	Ki-A1 (Adenosine A1 Receptor Selective Compounds) ([1]; selectivity versus other three subtypes): * (at least 10 times more selective than other three subtypes.)
CC(=O)NCCNc1nc(-c2ccccc2)nc2[nH]c(C)c(C)c12 [Compound 1300]	–	–	–	pKi [4]: 7.31 to 7.74
